From ChEMBL document CHEMBL3865818, “4,5-Diaryl-3H-1,2-dithiole-3-thiones and related compounds as combretastatin A-4/oltipraz hybrids: Synthesis, molecular modelling and evaluation as antiproliferative agents and inhibitors of tubulin” (Eur J Med Chem, 2016)

What was measured:
Type in all cases: functional
[1] = Cell cycle arrest in human KB cells assessed as accumulation at G2/M-phase at 0.1 uM measured after 36 hrs by propidium iodide staining-based flow cytometry (reference value: 27.34%)
[2] = Cell cycle arrest in human KB cells assessed as accumulation at S-phase at 0.05 uM measured after 48 hrs by propidium iodide staining-based flow cytometry (reference value: 13.32%)
[3] = Cell cycle arrest in human KB cells assessed as accumulation at G0/G1-phase at 0.2 uM measured after 48 hrs by propidium iodide staining-based flow cytometry (reference value: 58.26%)
[4] = Cell cycle arrest in human KB cells assessed as accumulation at G2/M-phase at 0.05 uM measured after 60 hrs by propidium iodide staining-based flow cytometry (reference value: 18.9%)
[5] = Cell cycle arrest in human KB cells assessed as accumulation at SubG1-phase measured after 60 hrs by propidium iodide staining-based flow cytometry (reference value: 1.24%)
[6] = Cell cycle arrest in human KB cells assessed as accumulation at G0/G1-phase at 0.1 uM measured after 60 hrs by propidium iodide staining-based flow cytometry (reference value: 63.85%)
[7] = Cell cycle arrest in human KB cells assessed as accumulation at S-phase at 0.1 uM measured after 60 hrs by propidium iodide staining-based flow cytometry (reference value: 12.66%)
[8] = Cell cycle arrest in human KB cells assessed as accumulation at G2/M-phase at 0.2 uM measured after 24 hrs by propidium iodide staining-based flow cytometry (reference value: 28.84%)
[9] = Cell cycle arrest in human KB cells assessed as accumulation at S-phase at 0.1 uM measured after 24 hrs by propidium iodide staining-based flow cytometry (reference value: 16.96%)
[10] = Cell cycle arrest in human KB cells assessed as accumulation at S-phase at 0.05 uM measured after 60 hrs by propidium iodide staining-based flow cytometry (reference value: 12.66%)
[11] = Cell cycle arrest in human KB cells assessed as accumulation at G2/M-phase at 0.1 uM measured after 12 hrs by propidium iodide staining-based flow cytometry (reference value: 30.19%)
[12] = Cell cycle arrest in human KB cells assessed as accumulation at G0/G1-phase at 0.05 uM measured after 12 hrs by propidium iodide staining-based flow cytometry (reference value: 48.26%)
[13] = Cell cycle arrest in human KB cells assessed as accumulation at SubG1-phase at 0.1 uM measured after 60 hrs by propidium iodide staining-based flow cytometry (reference value: 1.24%)

## COc1ccc(-c2ssc(=O)c2-c2cc(OC)c(OC)c(OC)c2)cc1N
[1]
  Activity: 23.7%
[2]
  Activity: 10.9%
[3]
  Activity: 11.7%
[4]
  Activity: 14%
[5]
  Activity: 58.1%
[6]
  Activity: 12.3%
[7]
  Activity: 9.61%
[8]
  Activity: 55.8%
[9]
  Activity: 25.4%
[10]
  Activity: 8.75%
[11]
  Activity: 62.8%
[12]
  Activity: 43%
[13]
  Activity: 57.8%
